From patent US20130303509A1, “NAMPT INHIBITORS” (AbbVie Inc., priority 2012, published 2013)

system: PC3 cells; assay: NAMPT Cell Proliferation Assay; type: cell-based; settings: Homo sapiens, PC-3, 120 h, 5 days incubation, cell viability by Cell Titer Glo
Method in brief: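 Seeded at 500 cells/well in RPMI with 10% heat-inactivated FBS and left to attach overnight at 37° C, 5% CO2. Compounds were added as 10-fold dilutions […] for 5 days, then viability was read by CellTiter-Glo. IC50s came from sigmoidal fits of percent inhibition.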

| SMILES | IC50 |
| --- | --- |
| O=C(Nc1ccc(C2CCN(C(=O)c3cc(Cl)cc(Cl)c3)CC2)cc1)[C@H]1CCN(c2cccnn2)C1 [Example 684, (3S)-N-{4-[1-(3,5-dichlorobenzoyl)piperidin-4-yl]phenyl}-1-(pyridazin-3-yl)pyrrolidine-3-carboxamide] | 76.6 nM |
| Cc1c(F)cccc1C(=O)N1CCC(c2ccc(NC(=O)[C@H]3CCN(c4cccnn4)C3)cc2)CC1 [Example 685, (3S)-N-{4-[1-(3-fluoro-2-methylbenzoyl)piperidin-4-yl]phenyl}-1-(pyridazin-3-yl)pyrrolidine-3-carboxamide] | 8.28 nM |
| Cc1ccc(C(=O)N2CCC(c3ccc(NC(=O)[C@H]4CCN(c5cccnn5)C4)cc3)CC2)cc1C [Example 688, (3S)-N-{4-[1-(3,4-dimethylbenzoyl)piperidin-4-yl]phenyl}-1-(pyridazin-3-yl)pyrrolidine-3-carboxamide] | 9.4 nM |
| O=C(Nc1ccc(C2CCN(C(=O)c3ccc(F)cc3)CC2)cc1)[C@H]1CCN(c2cccnn2)C1 [Example 689, (3S)-N-{4-[1-(4-fluorobenzoyl)piperidin-4-yl]phenyl}-1-(pyridazin-3-yl)pyrrolidine-3-carboxamide] | 9.68 nM |
| CC(=O)N1CCC(c2ccc(NC(=O)[C@H]3CCN(c4cccnn4)C3)cc2)CC1 [Example 691, (3S)-N-[4-(1-acetylpiperidin-4-yl)phenyl]-1-(pyridazin-3-yl)pyrrolidine-3-carboxamide] | 30 nM |
| Cc1cc(C)cc(C(=O)N2CCC(c3ccc(NC(=O)[C@H]4CCN(c5cccnn5)C4)cc3)CC2)c1 [Example 693, (3S)-N-{4-[1-(3,5-dimethylbenzoyl)piperidin-4-yl]phenyl}-1-(pyridazin-3-yl)pyrrolidine-3-carboxamide] | 13.6 nM |
| CCOCCC(=O)N1CCC(c2ccc(NC(=O)[C@H]3CCN(c4cccnn4)C3)cc2)CC1 [Example 694, (3S)-N-{4-[1-(3-ethoxypropanoyl)piperidin-4-yl]phenyl}-1-(pyridazin-3-yl)pyrrolidine-3-carboxamide] | 71.6 nM |
| O=C(Nc1ccc(C2CCN(C(=O)c3cc(Cl)ccc3Cl)CC2)cc1)[C@H]1CCN(c2cccnn2)C1 [Example 695, (3S)-N-{4-[1-(2,5-dichlorobenzoyl)piperidin-4-yl]phenyl}-1-(pyridazin-3-yl)pyrrolidine-3-carboxamide] | 6.16 nM |
| Cc1ccc(C)c(C(=O)N2CCC(c3ccc(NC(=O)[C@H]4CCN(c5cccnn5)C4)cc3)CC2)c1 [Example 696, (3S)-N-{4-[1-(2,5-dimethylbenzoyl)piperidin-4-yl]phenyl}-1-(pyridazin-3-yl)pyrrolidine-3-carboxamide] | 4.67 nM |
| O=C(Nc1ccc(C2CCN(C(=O)C(c3ccccc3)c3ccccc3)CC2)cc1)[C@H]1CCN(c2cccnn2)C1 [Example 698, (3S)-N-{4-[1-(diphenylacetyl)piperidin-4-yl]phenyl}-1-(pyridazin-3-yl)pyrrolidine-3-carboxamide] | 67.9 nM |
| O=C(Nc1ccc(C2CCN(C(=O)c3cccc(OC(F)(F)F)c3)CC2)cc1)[C@H]1CCN(c2cccnn2)C1 [Example 701, (3S)-1-(pyridazin-3-yl)-N-(4-{1-[3-(trifluoromethoxy)benzoyl]piperidin-4-yl}phenyl)pyrrolidine-3-carboxamide] | 75.2 nM |
| O=C(Nc1ccc(C2CCN(C(=O)C3(c4ccccc4)CC3)CC2)cc1)[C@H]1CCN(c2cccnn2)C1 [Example 702, (3S)-N-(4-{1-[(1-phenylcyclopropyl)carbonyl]piperidin-4-yl}phenyl)-1-(pyridazin-3-yl)pyrrolidine-3-carboxamide] | 2.07 nM |
| O=C(Nc1ccc(C2CCN(C(=O)c3cc(C(F)(F)F)ccc3F)CC2)cc1)[C@H]1CCN(c2cccnn2)C1 [Example 703, (3S)-N-(4-{1-[2-fluoro-5-(trifluoromethyl)benzoyl]piperidin-4-yl}phenyl)-1-(pyridazin-3-yl)pyrrolidine-3-carboxamide] | 8.43 nM |
| O=C(Nc1ccc(C2CCN(C(=O)CC3CCCCC3)CC2)cc1)[C@H]1CCN(c2cccnn2)C1 [Example 704, (3S)-N-{4-[1-(cyclohexylacetyl)piperidin-4-yl]phenyl}-1-(pyridazin-3-yl)pyrrolidine-3-carboxamide] | 5.3 nM |
| COc1ccc(C(=O)N2CCC(c3ccc(NC(=O)[C@H]4CCN(c5cccnn5)C4)cc3)CC2)cc1 [Example 705, (3S)-N-{4-[1-(4-methoxybenzoyl)piperidin-4-yl]phenyl}-1-(pyridazin-3-yl)pyrrolidine-3-carboxamide] | 20.2 nM |
| CCC(C)C(=O)N1CCC(c2ccc(NC(=O)[C@H]3CCN(c4cccnn4)C3)cc2)CC1 (stereo partly drawn) [Example 706, (3S)-N-{4-[1-(2-methylbutanoyl)piperidin-4-yl]phenyl}-1-(pyridazin-3-yl)pyrrolidine-3-carboxamide] | 7.7 nM |
| CCC(CC)C(=O)N1CCC(c2ccc(NC(=O)[C@H]3CCN(c4cccnn4)C3)cc2)CC1 [Example 707, (3S)-N-{4-[1-(2-ethylbutanoyl)piperidin-4-yl]phenyl}-1-(pyridazin-3-yl)pyrrolidine-3-carboxamide] | 6.93 nM |
| O=C(Nc1ccc(C2CCN(C(=O)Cc3ccccc3F)CC2)cc1)[C@H]1CCN(c2cccnn2)C1 [Example 710, (3S)-N-(4-{1-[(2-fluorophenyl)acetyl]piperidin-4-yl}phenyl)-1-(pyridazin-3-yl)pyrrolidine-3-carboxamide] | 10.3 nM |
| CC1(C(=O)N2CCC(c3ccc(NC(=O)[C@H]4CCN(c5cccnn5)C4)cc3)CC2)CC1 [Example 712, (3S)-N-(4-{1-[(1-methylcyclopropyl)carbonyl]piperidin-4-yl}phenyl)-1-(pyridazin-3-yl)pyrrolidine-3-carboxamide] | 6.79 nM |
| O=C(Nc1ccc(C2CCN(C(=O)Cc3cccc(F)c3)CC2)cc1)[C@H]1CCN(c2cccnn2)C1 [Example 714, (3S)-N-(4-{1-[(3-fluorophenyl)acetyl]piperidin-4-yl}phenyl)-1-(pyridazin-3-yl)pyrrolidine-3-carboxamide] | 17.6 nM |
| CSCCC(=O)N1CCC(c2ccc(NC(=O)[C@H]3CCN(c4cccnn4)C3)cc2)CC1 [Example 715, (3S)-N-(4-{1-[3-(methylsulfanyl)propanoyl]piperidin-4-yl}phenyl)-1-(pyridazin-3-yl)pyrrolidine-3-carboxamide] | 11.8 nM |
| CC(=O)N1CCC(C(=O)N2CCC(c3ccc(NC(=O)[C@H]4CCN(c5cccnn5)C4)cc3)CC2)CC1 [Example 716, (3S)-N-(4-{1-[(1-acetylpiperidin-4-yl)carbonyl]piperidin-4-yl}phenyl)-1-(pyridazin-3-yl)pyrrolidine-3-carboxamide] | 69.2 nM |
| C=CCC(=O)N1CCC(c2ccc(NC(=O)[C@H]3CCN(c4cccnn4)C3)cc2)CC1 [Example 717, (3S)-N-{4-[1-(but-3-enoyl)piperidin-4-yl]phenyl}-1-(pyridazin-3-yl)pyrrolidine-3-carboxamide] | 12.1 nM |

The remaining molecules from weak to strong by IC50, led by results:

| IC50 | SMILES |
| --- | --- |
| 65 nM | O=C(Nc1ccc(C2CCN(C(=O)c3ccc(C(F)(F)F)cc3)CC2)cc1)[C@H]1CCN(c2cccnn2)C1 [Example 699, (3S)-1-(pyridazin-3-yl)-N-(4-{1-[4-(trifluoromethyl)benzoyl]piperidin-4-yl}phenyl)pyrrolidine-3-carboxamide] |
| 64.9 nM | O=C(Nc1ccc(C2CCN(C(=O)Cc3ccc(Cl)cc3)CC2)cc1)[C@H]1CCN(c2cccnn2)C1 [Example 686, (3S)-N-(4-{1-[(4-chlorophenyl)acetyl]piperidin-4-yl}phenyl)-1-(pyridazin-3-yl)pyrrolidine-3-carboxamide] |
| 59.5 nM | O=C(Nc1ccc(C2CCN(C(=O)c3cccc(C(F)(F)F)c3)CC2)cc1)[C@H]1CCN(c2cccnn2)C1 [Example 711, (3S)-1-(pyridazin-3-yl)-N-(4-{1-[3-(trifluoromethyl)benzoyl]piperidin-4-yl}phenyl)pyrrolidine-3-carboxamide] |
| 14.5 nM | O=C(Nc1ccc(C2CCN(C(=O)c3cccc(Cl)c3)CC2)cc1)[C@H]1CCN(c2cccnn2)C1 [Example 709, (3S)-N-{4-[1-(3-chlorobenzoyl)piperidin-4-yl]phenyl}-1-(pyridazin-3-yl)pyrrolidine-3-carboxamide] |
| 14.2 nM | CC(C)(C)c1ccc(C(=O)N2CCC(c3ccc(NC(=O)[C@H]4CCN(c5cccnn5)C4)cc3)CC2)cc1 [Example 708, (3S)-N-{4-[1-(4-tert-butylbenzoyl)piperidin-4-yl]phenyl}-1-(pyridazin-3-yl)pyrrolidine-3-carboxamide] |
| 9.99 nM | C#CCCC(=O)N1CCC(c2ccc(NC(=O)[C@H]3CCN(c4cccnn4)C3)cc2)CC1 [Example 713, (3S)-N-{4-[1-(pent-4-ynoyl)piperidin-4-yl]phenyl}-1-(pyridazin-3-yl)pyrrolidine-3-carboxamide] |
| 8.76 nM | C=CCCC(=O)N1CCC(c2ccc(NC(=O)[C@H]3CCN(c4cccnn4)C3)cc2)CC1 [Example 700, (3S)-N-{4-[1-(pent-4-enoyl)piperidin-4-yl]phenyl}-1-(pyridazin-3-yl)pyrrolidine-3-carboxamide] |
| 6.11 nM | O=C(Nc1ccc(C2CCN(C(=O)c3ccoc3)CC2)cc1)[C@H]1CCN(c2cccnn2)C1 [Example 687, (3S)-N-{4-[1-(furan-3-ylcarbonyl)piperidin-4-yl]phenyl}-1-(pyridazin-3-yl)pyrrolidine-3-carboxamide] |
| 5.96 nM | Cc1ccc(F)cc1C(=O)N1CCC(c2ccc(NC(=O)[C@H]3CCN(c4cccnn4)C3)cc2)CC1 [Example 697, (3S)-N-{4-[1-(5-fluoro-2-methylbenzoyl)piperidin-4-yl]phenyl}-1-(pyridazin-3-yl)pyrrolidine-3-carboxamide] |
| 4.23 nM | O=C(Nc1ccc(C2CCN(C(=O)c3ccc(F)cc3F)CC2)cc1)[C@H]1CCN(c2cccnn2)C1 [Example 692, (3S)-N-{4-[1-(2,4-difluorobenzoyl)piperidin-4-yl]phenyl}-1-(pyridazin-3-yl)pyrrolidine-3-carboxamide] |
| 3.14 nM | O=C(Nc1ccc(C2CCN(C(=O)c3cc(C(F)(F)F)ccc3Cl)CC2)cc1)[C@H]1CCN(c2cccnn2)C1 [Example 690, (3S)-N-(4-{1-[2-chloro-5-(trifluoromethyl)benzoyl]piperidin-4-yl}phenyl)-1-(pyridazin-3-yl)pyrrolidine-3-carboxamide] |
